Results as given in ChEMBL document CHEMBL5724914, “Linking interpersonal differences in gut microbiota composition and drug biotransformation activity” (2024).
Also: call rule not given here.

Test: (§1) The drug is tested on Z-019 corresponding to rat gut metagenome with ENA study accession number: PRJEB37062 and ENA sample accession number: ERS12561818 for biotransformation under anaerobic condition. The drug concentrations were measured over 9 timepoints collected between 0 and 24 hours of incubation by liquid-chromatography-coupled mass spectrometry (LC–MS)
Conditions: 2 µM
For `CC(CN(C)C)CN1c2ccccc2CCc2ccccc21.O=C(O)/C=C\C(=O)O` (stereo not given) [TRIMIPRAMINE MALEATE], the “Bacterial Biotransformation” value was “Compound NOT metabolized”. For `CN1CCC(=C2c3ccccc3CCc3cccnc32)CC1.O=C(O)/C=C\C(=O)O.O=C(O)/C=C\C(=O)O` [AZATADINE MALEATE], the “Bacterial Biotransformation” value was “Compound NOT metabolized”.

Test: as §1, with “on Z-017” for “on Z-019”, “to mouse” for “to rat”, “number: ERS12561816” for “number: ERS12561818”
Conditions: 2 µM
In the case of `CC(CN(C)C)CN1c2ccccc2CCc2ccccc21.O=C(O)/C=C\C(=O)O` (stereo not given) [TRIMIPRAMINE MALEATE], the “Bacterial Biotransformation” value is reported as “Compound NOT metabolized”. With `CN1CCC(=C2c3ccccc3CCc3cccnc32)CC1.O=C(O)/C=C\C(=O)O.O=C(O)/C=C\C(=O)O` [AZATADINE MALEATE] the “Bacterial Biotransformation” value was “Compound NOT metabolized”.

Test: as §1, with “on Z-016” for “on Z-019”, “to mouse” for “to rat”, “number: ERS12561815” for “number: ERS12561818”
Conditions: 2 µM
For `CC(CN(C)C)CN1c2ccccc2CCc2ccccc21.O=C(O)/C=C\C(=O)O` (stereo not given) [TRIMIPRAMINE MALEATE], the “Bacterial Biotransformation” value was “Compound NOT metabolized”. For `CN1CCC(=C2c3ccccc3CCc3cccnc32)CC1.O=C(O)/C=C\C(=O)O.O=C(O)/C=C\C(=O)O` [AZATADINE MALEATE], the “Bacterial Biotransformation” value was “Compound NOT metabolized”.

Test: as §1, with “Z-014” for “Z-019”, “ERS12561814” for “ERS12561818”
Conditions: 2 µM
With `CC(CN(C)C)CN1c2ccccc2CCc2ccccc21.O=C(O)/C=C\C(=O)O` (stereo not given) [TRIMIPRAMINE MALEATE] the “Bacterial Biotransformation” value was “Compound NOT metabolized”. For `CN1CCC(=C2c3ccccc3CCc3cccnc32)CC1.O=C(O)/C=C\C(=O)O.O=C(O)/C=C\C(=O)O` [AZATADINE MALEATE], the “Bacterial Biotransformation” value was “Compound NOT metabolized”.

Test: as §1, with “on Z-013” for “on Z-019”, “to rabbit” for “to rat”, “number: ERS12561813” for “number: ERS12561818”
Conditions: 2 µM
For `CC(CN(C)C)CN1c2ccccc2CCc2ccccc21.O=C(O)/C=C\C(=O)O` (stereo not given) [TRIMIPRAMINE MALEATE], the “Bacterial Biotransformation” value was “Compound NOT metabolized”. In the case of `CN1CCC(=C2c3ccccc3CCc3cccnc32)CC1.O=C(O)/C=C\C(=O)O.O=C(O)/C=C\C(=O)O` [AZATADINE MALEATE], the “Bacterial Biotransformation” value is reported as “Compound NOT metabolized”.

Test: as §1, with “Z-008” for “Z-019”, “to” for “to rat gut”, “ERS12561808” for “ERS12561818”
Conditions: 2 µM
For `CC(CN(C)C)CN1c2ccccc2CCc2ccccc21.O=C(O)/C=C\C(=O)O` (stereo not given) [TRIMIPRAMINE MALEATE], the “Bacterial Biotransformation” value was “Compound NOT metabolized”. For `CN1CCC(=C2c3ccccc3CCc3cccnc32)CC1.O=C(O)/C=C\C(=O)O.O=C(O)/C=C\C(=O)O` [AZATADINE MALEATE], the “Bacterial Biotransformation” value was “Compound NOT metabolized”.

Test: as §1, with “on WLS-310” for “on Z-019”, “to human” for “to rat”, “number: ERS12561785” for “number: ERS12561818”
Conditions: 2 µM
With `CC(CN(C)C)CN1c2ccccc2CCc2ccccc21.O=C(O)/C=C\C(=O)O` (stereo not given) [TRIMIPRAMINE MALEATE] the “Bacterial Biotransformation” value was “Compound metabolized”. For `CN1CCC(=C2c3ccccc3CCc3cccnc32)CC1.O=C(O)/C=C\C(=O)O.O=C(O)/C=C\C(=O)O` [AZATADINE MALEATE], the “Bacterial Biotransformation” value was “Compound NOT metabolized”.

Test: as §1, with “on WLS-220” for “on Z-019”, “to human” for “to rat”, “number: ERS12561769” for “number: ERS12561818”
Conditions: 2 µM
For `CC(CN(C)C)CN1c2ccccc2CCc2ccccc21.O=C(O)/C=C\C(=O)O` (stereo not given) [TRIMIPRAMINE MALEATE], the “Bacterial Biotransformation” value was “Compound metabolized”. In the case of `CN1CCC(=C2c3ccccc3CCc3cccnc32)CC1.O=C(O)/C=C\C(=O)O.O=C(O)/C=C\C(=O)O` [AZATADINE MALEATE], the “Bacterial Biotransformation” value is reported as “Compound NOT metabolized”.

Test: as §1, with “on WLS-086” for “on Z-019”, “to human” for “to rat”, “number: ERS12561752” for “number: ERS12561818”
Conditions: 2 µM
In the case of `CC(CN(C)C)CN1c2ccccc2CCc2ccccc21.O=C(O)/C=C\C(=O)O` (stereo not given) [TRIMIPRAMINE MALEATE], the “Bacterial Biotransformation” value is reported as “Compound metabolized”. In the case of `CN1CCC(=C2c3ccccc3CCc3cccnc32)CC1.O=C(O)/C=C\C(=O)O.O=C(O)/C=C\C(=O)O` [AZATADINE MALEATE], the “Bacterial Biotransformation” value is reported as “Compound NOT metabolized”.

Test: as §1, with “on WLS-073” for “on Z-019”, “to human” for “to rat”, “number: ERS12561749” for “number: ERS12561818”
Conditions: 2 µM
In the case of `CC(CN(C)C)CN1c2ccccc2CCc2ccccc21.O=C(O)/C=C\C(=O)O` (stereo not given) [TRIMIPRAMINE MALEATE], the “Bacterial Biotransformation” value is reported as “Compound NOT metabolized”. For `CN1CCC(=C2c3ccccc3CCc3cccnc32)CC1.O=C(O)/C=C\C(=O)O.O=C(O)/C=C\C(=O)O` [AZATADINE MALEATE], the “Bacterial Biotransformation” value was “Compound NOT metabolized”.

Test: as §1, with “on WLS-038” for “on Z-019”, “to human” for “to rat”, “number: ERS12561745” for “number: ERS12561818”
Conditions: 2 µM
In the case of `CC(CN(C)C)CN1c2ccccc2CCc2ccccc21.O=C(O)/C=C\C(=O)O` (stereo not given) [TRIMIPRAMINE MALEATE], the “Bacterial Biotransformation” value is reported as “Compound NOT metabolized”. For `CN1CCC(=C2c3ccccc3CCc3cccnc32)CC1.O=C(O)/C=C\C(=O)O.O=C(O)/C=C\C(=O)O` [AZATADINE MALEATE], the “Bacterial Biotransformation” value was “Compound NOT metabolized”.

Test: as §1, with “on WLS-007” for “on Z-019”, “to human” for “to rat”, “number: ERS12561742” for “number: ERS12561818”
Conditions: 2 µM
In the case of `CC(CN(C)C)CN1c2ccccc2CCc2ccccc21.O=C(O)/C=C\C(=O)O` (stereo not given) [TRIMIPRAMINE MALEATE], the “Bacterial Biotransformation” value is reported as “Compound metabolized”. For `CN1CCC(=C2c3ccccc3CCc3cccnc32)CC1.O=C(O)/C=C\C(=O)O.O=C(O)/C=C\C(=O)O` [AZATADINE MALEATE], the “Bacterial Biotransformation” value was “Compound NOT metabolized”.

Conditions: human gut metagenome, 24 h, 2 µM
In the case of `CC(CN(C)C)CN1c2ccccc2CCc2ccccc21.O=C(O)/C=C\C(=O)O` (stereo not given) [TRIMIPRAMINE MALEATE], the “Bacterial Biotransformation” value is reported as “Compound NOT metabolized”. In the case of `CN1CCC(=C2c3ccccc3CCc3cccnc32)CC1.O=C(O)/C=C\C(=O)O.O=C(O)/C=C\C(=O)O` [AZATADINE MALEATE], the “Bacterial Biotransformation” value is reported as “Compound NOT metabolized”.

Conditions: human gut metagenome, 24 h, 2 µM
Remark: another data set of the same source
In the case of `CC(CN(C)C)CN1c2ccccc2CCc2ccccc21.O=C(O)/C=C\C(=O)O` (stereo not given) [TRIMIPRAMINE MALEATE], the “Bacterial Biotransformation” value is reported as “Compound metabolized”. For `CN1CCC(=C2c3ccccc3CCc3cccnc32)CC1.O=C(O)/C=C\C(=O)O.O=C(O)/C=C\C(=O)O` [AZATADINE MALEATE], the “Bacterial Biotransformation” value was “Compound NOT metabolized”.

Conditions: human gut metagenome, 24 h, 2 µM
Remark: another data set of the same source
With `CC(CN(C)C)CN1c2ccccc2CCc2ccccc21.O=C(O)/C=C\C(=O)O` (stereo not given) [TRIMIPRAMINE MALEATE] the “Bacterial Biotransformation” value was “Compound metabolized”. For `CN1CCC(=C2c3ccccc3CCc3cccnc32)CC1.O=C(O)/C=C\C(=O)O.O=C(O)/C=C\C(=O)O` [AZATADINE MALEATE], the “Bacterial Biotransformation” value was “Compound NOT metabolized”.

Conditions: human gut metagenome, 24 h, 2 µM
Remark: another data set of the same source
With `CC(CN(C)C)CN1c2ccccc2CCc2ccccc21.O=C(O)/C=C\C(=O)O` (stereo not given) [TRIMIPRAMINE MALEATE] the “Bacterial Biotransformation” value was “Compound NOT metabolized”. With `CN1CCC(=C2c3ccccc3CCc3cccnc32)CC1.O=C(O)/C=C\C(=O)O.O=C(O)/C=C\C(=O)O` [AZATADINE MALEATE] the “Bacterial Biotransformation” value was “Compound NOT metabolized”.

Conditions: human gut metagenome, 24 h, 2 µM
Remark: another data set of the same source
For `CC(CN(C)C)CN1c2ccccc2CCc2ccccc21.O=C(O)/C=C\C(=O)O` (stereo not given) [TRIMIPRAMINE MALEATE], the “Bacterial Biotransformation” value was “Compound NOT metabolized”. With `CN1CCC(=C2c3ccccc3CCc3cccnc32)CC1.O=C(O)/C=C\C(=O)O.O=C(O)/C=C\C(=O)O` [AZATADINE MALEATE] the “Bacterial Biotransformation” value was “Compound NOT metabolized”.

Conditions: human gut metagenome, 24 h, 2 µM
Remark: another data set of the same source
For `CC(CN(C)C)CN1c2ccccc2CCc2ccccc21.O=C(O)/C=C\C(=O)O` (stereo not given) [TRIMIPRAMINE MALEATE], the “Bacterial Biotransformation” value was “Compound metabolized”. With `CN1CCC(=C2c3ccccc3CCc3cccnc32)CC1.O=C(O)/C=C\C(=O)O.O=C(O)/C=C\C(=O)O` [AZATADINE MALEATE] the “Bacterial Biotransformation” value was “Compound NOT metabolized”.

Conditions: human gut metagenome, 24 h, 2 µM
Remark: another data set of the same source
With `CC(CN(C)C)CN1c2ccccc2CCc2ccccc21.O=C(O)/C=C\C(=O)O` (stereo not given) [TRIMIPRAMINE MALEATE] the “Bacterial Biotransformation” value was “Compound metabolized”. With `CN1CCC(=C2c3ccccc3CCc3cccnc32)CC1.O=C(O)/C=C\C(=O)O.O=C(O)/C=C\C(=O)O` [AZATADINE MALEATE] the “Bacterial Biotransformation” value was “Compound metabolized”.

Conditions: human gut metagenome, 24 h, 2 µM
Remark: another data set of the same source
With `CC(CN(C)C)CN1c2ccccc2CCc2ccccc21.O=C(O)/C=C\C(=O)O` (stereo not given) [TRIMIPRAMINE MALEATE] the “Bacterial Biotransformation” value was “Compound metabolized”. With `CN1CCC(=C2c3ccccc3CCc3cccnc32)CC1.O=C(O)/C=C\C(=O)O.O=C(O)/C=C\C(=O)O` [AZATADINE MALEATE] the “Bacterial Biotransformation” value was “Compound NOT metabolized”.
